Assay results: patent publication US10954300B2, “Use of pentoxifylline with immune checkpoint-blockade therapies for the treatment of melanoma” (THE TRUSTEES OF COLUMBIA UNIVERSITY IN THE CITY OF NEW YORK, priority 2015, dated 2021)
Entries after “also recorded” stand apart in the source; their conditions may differ.

Key:
Treg cells = experiment: In vitro suppression assay with PTXF-treated Treg cells; format: cell-based, mice; details: vs mock-treated Treg cells
B16F1 melanoma cells [1] = experiment: B16F1 melanoma growth, early treatment with PTXF or IT-603; format: in vivo, C57Bl/6 WT mice
Method: B16F1, B16F10 and CT-26 cells were obtained from the ATCC and grown in DMEM+10% FBS medium. BRAF^CAPten^−/− cells were originally derived from an in vivo melanoma induced by topical tamoxifen treatment of Ubc^cre-ERT2 BRAF^CA Pten^F/F, as described. All cell lines were periodically tested for murine pathogens. Cells were grown in DMEM supplemented with 10% FBS. When confluence reached 60-70%, cells were detached and washed in PBS1X. Fifty thousand cells diluted in 50 μL PBS1X were injected subcutaneously in the shaved abdomen of each mouse. Tumor growth was measured daily using a caliper.
Pentoxifylline (Sigma) powder was dissolved in PBS1X and sterile filtered prior to each injection. […] For the “curative” regimen, mice were treated daily from day 5-6 (when the tumor was visible and palpable) to day 11, following the same methods. IT-603 was reconstituted in DMSO and stored at −80° C. It then was diluted in PBS1X and sterile-filtered prior to each injection. […]
(§1) 5×10^4 B16F1 or 5×10^5 CT-26 or BRAF^CAPten^−/− cells diluted in sterile PBS1X were injected subcutaneously into the shaved flank of each mouse. For metastasis experiments, 2.5×10^4 B16F10 cells were injected intravenously in the tail vein. […] Anti-PD-1 (RMP1-14), anti-PD-L1 (10F.9G2) and anti-CD8 (YTS.169-4) mAbs were obtained from BioXCell. Rat IgG isotype control was from R&D Systems. […] In FIG. 11A-11G, Balb/c mice harboring CT-26 tumors received a suboptimal dose of 100 μg of anti-PD-1.
C57BI/6 WT mice were injected subcutaneously with 5×10^4 B16F1 melanoma cells, and then injected with either PBS (control), pentoxifylline, or IT-603 (red arrows). Tumor growth was monitored daily.

B16F1 melanoma cells [2] = experiment: Established B16F1 melanoma, PTXF with or without checkpoint-blockade mAb; format: in vivo, C57Bl/6 WT mice; details: for tumor size / tumor growth (growth curves): PTXF 50 mg/kg and/or anti-PD-1 mAb from D5-D6, vs control
Method: Pentoxifylline (Sigma) powder was dissolved in PBS1X and sterile filtered prior to each injection. For the early regimen of pentoxifylline treatment, mice were injected intra-peritoneally with 50 mg/kg pentoxifylline diluted in 100 μL PBS1X at days 0, 1, 2, 3, 5, 7, and 9. For the “curative” regimen, mice were treated daily from day 5-6 (when the tumor was visible and palpable) to day 11, following the same methods. IT-603 was reconstituted in DMSO and stored at −80° C. It then was diluted in PBS1X and sterile-filtered prior to each injection. Mice were injected intra-peritoneally with 10 mg/kg […] diluted in 100 μL PBS1X at days 0, 1, 2, 3, 5, 7 and 9.
Anti-PD-1 antibody (clone RMP1-14, BioXCell®) or isotype control (polyclonal IgG, BioXCell®) is available commercially. The antibodies were aliquoted in sterile PBS1X and stored at −80° C. until use. Mice are injected intra-peritoneally with […] of anti-PD-1 or isotype antibody, diluted in 100 μL sterile PBS1X at days 6, 8 and 10. All injections are performed using a 27.5 gauge needle, following the standard precautions.
as §1
Tumor growth was monitored daily.

c-Rel = target: T1, c-Rel (Homo sapiens, UniProt Q04864); details: cited from earlier work
T1 construct: host or cells: T cells
T1 sequence (Q04864 1-619): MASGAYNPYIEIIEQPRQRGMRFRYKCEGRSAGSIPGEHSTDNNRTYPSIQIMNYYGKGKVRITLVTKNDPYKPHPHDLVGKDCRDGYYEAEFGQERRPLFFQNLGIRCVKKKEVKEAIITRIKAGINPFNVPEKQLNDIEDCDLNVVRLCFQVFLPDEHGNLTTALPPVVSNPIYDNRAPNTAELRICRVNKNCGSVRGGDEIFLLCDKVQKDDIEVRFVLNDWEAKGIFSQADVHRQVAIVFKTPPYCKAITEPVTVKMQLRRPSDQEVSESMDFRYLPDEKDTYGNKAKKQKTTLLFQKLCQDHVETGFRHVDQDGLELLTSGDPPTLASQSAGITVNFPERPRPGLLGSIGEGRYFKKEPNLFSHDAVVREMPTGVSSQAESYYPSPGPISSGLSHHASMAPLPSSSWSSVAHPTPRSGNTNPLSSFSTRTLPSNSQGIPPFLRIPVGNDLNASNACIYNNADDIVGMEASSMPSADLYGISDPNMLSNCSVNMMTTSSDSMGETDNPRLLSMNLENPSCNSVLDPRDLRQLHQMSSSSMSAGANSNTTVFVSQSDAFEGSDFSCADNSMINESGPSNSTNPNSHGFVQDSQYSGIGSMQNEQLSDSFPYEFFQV

B16F1 melanoma cells [3] = experiment: Flow cytometry of tumor infiltrates (TILs) at D16, early PTXF treatment; format: in vivo, C57Bl/6J mice
Method: Cells were isolated from thymus, spleen and lymph nodes by mechanical desegregation in PBS+ FBS 3%. For tumor-infiltrating cell suspensions, total tumors were digested in DMEM (Gibco) supplemented with 1 mg/ml collagenase type IV (Sigma) and 1 mg/ml DNase I (Sigma) for 40 minutes at 37° C., followed by centrifugation in a 36% Percoll solution. For intracellular cytokines analyses, cell suspensions were incubated 3 hours with PMA (Sigma, 50 ng/mL), ionoymycin (Sigma, 1 μg/mL) in the presence of Golgi Plug (BD), or incubated 4 hours with mitomycin C-treated WT splenocytes loaded with 10 mg/mL gp100/pmel 17 peptide (Neo Biolab) in the presence of Golgi Plug. Cells were then stained with mAbs purchased by eBioscience or Tonbo Bioscience. Foxp3 and cytokine staining were performed using the eBioscience kit and protocol. Cells were acquired on a LSR II (BD Biosciences) and analyzed with FlowJo (Tree Star) software.

## CC(=O)CCCCn1c(=O)c2c(ncn2C)n(C)c1=O [PTXF, 1-(5-oxohexyl)-3,7-dimethylxanthine]
Treg cells
  suppression of effector T-cell proliferation by PTXF-treated Treg cells: modest, but significant, reduction
B16F1 melanoma cells [1]; B16F1-bearing mice, 50 mg/kg PTXF
  size or composition of lymphoid tissues: No observable differences
B16F1 melanoma cells [1]; B16F1-bearing mice, 50 mg/kg PTXF, 50 mg/kg
  adverse events: no apparent adverse events; also recorded: No adverse effects of treatment were observed
B16F1 melanoma cells [1]; B16F1, daily injections of 50 mg/kg PTXF vs PBS
  pace of tumor growth: significant reduction in the pace of tumor growth
B16F1 melanoma cells [1]; B16F1 s.c., PTXF 50 mg/kg or IT-603 10 mg/kg on days 0, 2, 3, 4, 6 and 8, vs control vehicle
  tumor growth (tumor volume, monitored daily): significantly reduced growth of the tumors
B16F1 melanoma cells [2]
  tumor size / tumor growth (growth curves): did not change the growth curves; also recorded: did not significantly reduce tumor size
B16F1 melanoma cells [2]; listed as pentoxifylline
  tumor size / tumor growth (growth curves): did not significantly reduce tumor size
B16F1 melanoma cells [2]; PTXF and/or anti-PD-L1 mAb
  tumor growth, anti-PD-L1 instead of anti-PD-1: did not affect tumor growth
c-Rel
  levels of c-Rel activation in T cells in vitro: reduces the levels of c-Rel activation
B16F1 melanoma cells [3]
  CD44 and Ki67 expression on CD4+ Tconv TILs: increased
  infiltration of total T cells and IFN-γ-producing CD4 and CD8 T-cells into the tumors: increase in infiltration
  proportion of Treg cells in tumor infiltrates: decrease in the proportion of Treg cells
